The source of these data is article PMC6002460, “Pharmacological evaluation of new constituents of “Spice”: synthetic cannabinoids based on indole, indazole, benzimidazole and carbazole scaffolds” (Forensic Toxicology, 2018).

The term EC50 denotes the midpoint of the concentration-response curve. Broadly, the IC50 is the concentration that inhibits the measured activity by half. A word on the Ki: it is a measure of affinity in units of concentration, obtained from inhibition or displacement.

Where two headings read alike, the source gives them in different places. Bounds are passed on as bounds.

Assay [1] has as its target T1, human GPR18 (Homo sapiens, UniProt Q14330).
T1 construct: host or cells: CHO cells
T1 sequence (Q14330 1-331): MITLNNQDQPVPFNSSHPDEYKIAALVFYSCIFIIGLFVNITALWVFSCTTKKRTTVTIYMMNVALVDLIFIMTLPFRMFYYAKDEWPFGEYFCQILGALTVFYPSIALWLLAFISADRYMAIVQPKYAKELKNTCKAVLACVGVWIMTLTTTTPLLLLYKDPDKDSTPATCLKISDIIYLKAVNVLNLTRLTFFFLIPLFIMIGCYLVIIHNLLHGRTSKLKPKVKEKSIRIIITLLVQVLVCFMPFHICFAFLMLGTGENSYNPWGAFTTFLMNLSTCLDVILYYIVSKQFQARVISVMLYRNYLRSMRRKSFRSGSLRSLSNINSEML
Kind of assay: β-Arrestin PathHunter assay, recombinant CHO cells expressing GPR18. It is filed as cell-based. The note with it: for Human GPR18 % activation / Human GPR18 % inhibition: value in parentheses. As for the experimental part: (§1) β-Arrestin assays were performed in recombinant CHO cells expressing either the human GPR18 or the human GPR55 as described before using the β-galactosidase enzyme fragment complementation technology (β-arrestin PathHunter™ assay; DiscoverX, Fremont, CA, USA).
(§2) The orphan receptors GPR18 and GPR55 can interact with certain natural and synthetic cannabinoids. […] Therefore, we investigated the new series of indole, indazole, benzimidazole and carbazole-derived structures in β-arrestin assays at GPR18 and GPR55 (Table 2). […] For the lipophilic substitutions, the following rank order of potency was observed: ethyl > methyl > chloro > fluoro. Therefore, it can be concluded that a lipophilic substitution in position 4 of the naphthyl residue was a requirement for GPR55 inhibition.

Assay [2] deals with T2, human CB1 receptor (Homo sapiens, UniProt P21554).
T2 construct: expressed in transfected cells; host or cells: CHO cells (membrane preparations)
T2 sequence (P21554 whole entry): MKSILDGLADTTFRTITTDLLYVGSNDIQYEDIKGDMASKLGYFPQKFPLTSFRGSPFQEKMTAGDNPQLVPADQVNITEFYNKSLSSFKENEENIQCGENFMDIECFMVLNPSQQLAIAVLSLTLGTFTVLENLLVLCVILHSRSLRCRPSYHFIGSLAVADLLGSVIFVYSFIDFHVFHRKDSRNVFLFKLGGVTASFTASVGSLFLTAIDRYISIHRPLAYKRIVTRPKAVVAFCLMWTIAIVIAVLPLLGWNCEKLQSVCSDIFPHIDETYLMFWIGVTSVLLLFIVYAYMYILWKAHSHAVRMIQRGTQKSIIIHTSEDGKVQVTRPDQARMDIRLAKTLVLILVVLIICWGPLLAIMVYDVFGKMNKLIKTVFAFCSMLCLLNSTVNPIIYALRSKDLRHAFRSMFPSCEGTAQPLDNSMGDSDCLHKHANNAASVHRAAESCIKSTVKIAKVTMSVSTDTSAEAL
In words: biochemical. It is filed as binding. As to conditions: [3H]CP55,940 0.1 nM, CHO cell membranes; read-out: Ki ± SEM Human CB1.

In assay [3] the target is T3, human GPR55 (Homo sapiens, UniProt Q9Y2T6).
T3 construct: host or cells: CHO cells
T3 sequence (Q9Y2T6 whole entry): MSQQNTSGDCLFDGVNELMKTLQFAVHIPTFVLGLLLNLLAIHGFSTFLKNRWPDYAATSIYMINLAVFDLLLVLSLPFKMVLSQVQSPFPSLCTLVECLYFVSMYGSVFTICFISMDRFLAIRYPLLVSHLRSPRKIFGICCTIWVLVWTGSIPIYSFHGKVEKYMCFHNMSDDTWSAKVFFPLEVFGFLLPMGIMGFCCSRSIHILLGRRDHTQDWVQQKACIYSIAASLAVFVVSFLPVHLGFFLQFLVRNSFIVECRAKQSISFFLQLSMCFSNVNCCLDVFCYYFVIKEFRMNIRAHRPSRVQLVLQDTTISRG
Kind of assay: β-Arrestin PathHunter assay, recombinant CHO cells expressing GPR55. It is filed as cell-based. As to conditions: for Human GPR55 % activation / Human GPR55 % inhibition: value in parentheses; for Human GPR55 % inhibition: antagonist mode versus LPI 1 µM. As for the experimental part: as §1, §2

The target in assay [4] is T4, human CB2 receptor (Homo sapiens, UniProt P34972).
T4 construct: expressed in transfected cells; host or cells: CHO cells (membrane preparations)
T4 sequence (P34972 whole entry): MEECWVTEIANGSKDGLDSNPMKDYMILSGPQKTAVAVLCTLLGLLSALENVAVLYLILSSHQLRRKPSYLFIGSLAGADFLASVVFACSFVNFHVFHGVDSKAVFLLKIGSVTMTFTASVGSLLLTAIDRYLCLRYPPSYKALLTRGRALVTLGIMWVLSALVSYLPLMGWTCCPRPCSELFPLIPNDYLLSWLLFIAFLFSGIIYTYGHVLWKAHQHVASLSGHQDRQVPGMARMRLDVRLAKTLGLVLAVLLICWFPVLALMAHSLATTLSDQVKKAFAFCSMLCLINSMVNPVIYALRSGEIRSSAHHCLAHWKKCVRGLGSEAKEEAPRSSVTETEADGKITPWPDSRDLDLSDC
In words: biochemical. It is filed as binding. The note with it: [3H]CP55,940 0.1 nM, CHO cell membranes; read-out: Ki ± SEM Human CB2.

For `CC[C@H](C)[C@H](NC(=O)c1nn(CCCCCF)c2ccccc12)C(N)=O` (single isomer, unassigned; isomer 2) [compound 26, 5F-ADB-PINACA-isomer 2], the EC50 in assay [1] and in assay [3] was greater than 10 µM in each case. The half-maximal inhibitory concentration (IC50) in assay [1] and in assay [3] was greater than 10 µM each time. The “Human GPR18 % activation” value in assay [1] (agonist mode) was 8%. Also, the Ki in assay [2] amounted to 0.0031 ± 0.00153 µM; in assay [4], 0.00428 ± 0.00286 µM. Further, the “Human GPR55 % activation” value in assay [3] (agonist mode) is reported as 2%.
On to `O=C(Nc1cccc2ccccc12)c1cn(Cc2ccc(F)cc2)c2ccccc12` [compound 4, FDU-NNEI], for which, in assay [1], the EC50 was greater than 10 µM and the IC50 was greater than 10 µM. In addition, the “Human GPR18 % activation” value in assay [1] (agonist mode) came to 20%. Also, the Ki in assay [2] is 0.00742 ± 0.00251 µM. In addition, in assay [3], the EC50 is greater than 10 µM, the IC50 was greater than 10 µM and the “Human GPR55 % inhibition” value came out at 2%. For the same compound, the “Human GPR55 % activation” value in assay [3] (agonist mode) came out at 13%. Moreover, the Ki in assay [4] was 0.064 ± 0.015 µM.
For the compound `CCCCCn1cc(C(=O)N[C@H](C(=O)OC)C(C)C)c2ccccc21` [compound 5, MMB-018], in assay [1], the concentration giving a half-maximal response (EC50) was greater than 10 µM and the IC50 was greater than 10 µM. The “Human GPR18 % activation” value in assay [1] (agonist mode) came out at 13%. Besides, in assay [2], the Ki was 0.0151 ± 0.0059 µM. In assay [3], the EC50 was greater than 10 µM, the IC50 was greater than 10 µM and the “Human GPR55 % inhibition” value came to 5%. Besides, the “Human GPR55 % activation” value in assay [3] (agonist mode) is 5%. For the same compound, the Ki in assay [4] was determined as 0.014 ± 0.0008 µM.
Consider `CCCCCn1nc(C(=O)N[C@H](C(=O)OC)C(C)C)c2ccccc21` [compound 6, AMB], for which, in assay [1], the EC50 was greater than 10 µM and the IC50 is greater than 10 µM. Besides, in assay [1] (agonist mode), the “Human GPR18 % activation” value is 42%. Besides, the “Human GPR18 % inhibition” value in assay [1] (antagonist mode) came to 15%. Also, in assay [2], the Ki was found to be 0.000866 ± 5.7e-05 µM. In assay [3], the EC50 is greater than 10 µM, the 50% inhibitory concentration (IC50) is greater than 10 µM and the “Human GPR55 % inhibition” value was 28%. Moreover, the “Human GPR55 % activation” value in assay [3] (agonist mode) turned out to be 15%. Moreover, the Ki in assay [4] is 0.000973 ± 0.000104 µM.
With `COC(=O)[C@@H](NC(=O)c1cn(CCCCCF)c2ccccc12)C(C)C` [compound 7, MMB-2201], the EC50 in assay [1] and in assay [3] was greater than 10 µM in each case. The IC50 in assay [1] and in assay [3] was greater than 10 µM throughout. The “Human GPR18 % activation” value in assay [1] (agonist mode) came to 2%. For the same compound, the Ki in assay [2] turned out to be 0.0152 ± 0.005 µM; in assay [4], 0.0198 ± 0.0042 µM. Besides, in assay [3] (agonist mode), the “Human GPR55 % activation” value was 5%.
As to `CC(C)[C@H](NC(=O)c1nn(CCCCCCl)c2ccccc12)C(N)=O` [compound 17, 5Cl-AB-PINACA], the EC50 in assay [1] and in assay [3] was greater than 10 µM throughout. For the same compound, the IC50 in assay [1] and in assay [3] was greater than 10 µM throughout. For the same compound, the “Human GPR18 % activation” value in assay [1] (agonist mode) amounted to 4%. Moreover, the “Human GPR18 % inhibition” value in assay [1] (antagonist mode) was 0%. The Ki is 0.00406 ± 0.00195 µM in assay [2] and 0.012 ± 0.0017 µM in assay [4]. In assay [3] (agonist mode), the “Human GPR55 % activation” value was found to be 17%.
Take `CC(C)(C)[C@H](NC(=O)c1cn(CC2CCCCC2)c2ccccc12)C(N)=O` [compound 22, ADB-CHMICA]: in assay [1], the EC50 is greater than 10 µM and the IC50 is greater than 10 µM. The “Human GPR18 % activation” value in assay [1] (agonist mode) came to 8%. The “Human GPR18 % inhibition” value in assay [1] (antagonist mode) is given as 14%. Besides, the Ki in assay [2] turned out to be 0.00124 ± 0.00036 µM. Also, in assay [3], the EC50 was greater than 10 µM, the IC50 is greater than 10 µM and the “Human GPR55 % inhibition” value stood at 8%. In addition, the “Human GPR55 % activation” value in assay [3] (agonist mode) is recorded as 17%. Further, the Ki in assay [4] amounted to 0.000628 ± 0.000231 µM.
Regarding `CC(C)(C)[C@H](NC(=O)c1nn(CC2CCCCC2)c2ccccc12)C(N)=O` [compound 25], the EC50 in assay [1] and in assay [3] was greater than 10 µM throughout. The IC50 in assay [1] and in assay [3] was greater than 10 µM each time. For the same compound, the “Human GPR18 % activation” value in assay [1] (agonist mode) was 6%. In assay [1] (antagonist mode), the “Human GPR18 % inhibition” value is given as > 10 (10%). Also, the Ki in assay [2] amounted to 0.000333 ± 5.9e-05 µM; in assay [4] it was 0.000331 ± 4.8e-05 µM. Moreover, in assay [3] (agonist mode), the “Human GPR55 % activation” value was 16%.
On to `NC(=O)[C@H](Cc1ccccc1)NC(=O)c1cn(CCCCCF)c2ccccc12` [compound 27, PX-1], for which the EC50 in assay [1] and in assay [3] was greater than 10 µM in each case. For the same compound, the IC50 in assay [1] and in assay [3] was greater than 10 µM throughout. The “Human GPR18 % activation” value in assay [1] (agonist mode) is reported as 15%. Further, the Ki in assay [2] turned out to be 0.485 ± 0.117 µM; in assay [4] it was 0.164 ± 0.017 µM. For the same compound, the “Human GPR55 % activation” value in assay [3] (agonist mode) was determined as 6%. Moreover, the “Human GPR55 % inhibition” value in assay [3] came to 1%.
With `NC(=O)[C@H](Cc1ccccc1)NC(=O)c1nn(CCCCCF)c2ccccc12` [compound 28, PX-2], the EC50 in assay [1] and in assay [3] was greater than 10 µM throughout. The IC50 in assay [1] and in assay [3] was greater than 10 µM each time. In assay [1] (antagonist mode), the “Human GPR18 % inhibition” value was 15%. In addition, the Ki in assay [2] is 0.127 ± 0.043 µM; in assay [4] it was 0.0174 ± 0.0014 µM. Moreover, the “Human GPR55 % activation” value in assay [3] (agonist mode) is 16%.
For the compound `COC(=O)[C@@H](OC(=O)c1nn(CC2CCCCC2)c2ccccc12)C(C)(C)C` [compound 34], the EC50 in assay [1] and in assay [3] was greater than 10 µM throughout. The IC50 in assay [1] stood at 12.6 ± 3.5 µM; in assay [3], 9.29 ± 1.7 µM. Besides, in assay [1] (agonist mode), the “Human GPR18 % activation” value is 0%. For the same compound, the Ki amounted to 0.0104 ± 0.0074 µM in assay [2] and 0.00111 ± 0.00014 µM in assay [4]. Besides, in assay [3] (agonist mode), the “Human GPR55 % activation” value is 1%.
For the compound `O=C(c1cccc2ccccc12)c1cn(Cc2ccc(F)cc2)c2ccccc12` [compound 35, FUB-JWH-018], in assay [1], the EC50 is greater than 10 µM and the IC50 is greater than 10 µM. In addition, the “Human GPR18 % activation” value in assay [1] (agonist mode) was 20%. In addition, in assay [1] (antagonist mode), the “Human GPR18 % inhibition” value amounted to 30%. In assay [2], the Ki came to 0.00327 ± 0.00176 µM. In assay [3], the EC50 is greater than 10 µM, the IC50 was greater than 10 µM and the “Human GPR55 % inhibition” value came to 30%. For the same compound, the “Human GPR55 % activation” value in assay [3] (agonist mode) amounted to 7%. Further, the Ki in assay [4] was 0.00134 ± 0.00048 µM.
Consider `O=C(c1ccc(F)c2ccccc12)c1cn(CCCCCF)c2ccccc12` [compound 36, F-2201], for which the EC50 in assay [1] and in assay [3] was greater than 10 µM each time. Moreover, the IC50 in assay [1] was greater than 10 µM; in assay [3], 22.1 ± 12.2 µM. The “Human GPR18 % activation” value in assay [1] (agonist mode) is 18%. The “Human GPR18 % inhibition” value in assay [1] (antagonist mode) came out at 14%. The figures for the Ki in assay [2] and in assay [4] were 0.000852 ± 0.000192 µM and 0.00189 ± 0.00057 µM, respectively.
In the case of `O=C(c1ccc(Cl)c2ccccc12)c1cn(CCCCCF)c2ccccc12` [compound 37, Cl-2201], the EC50 in assay [1] and in assay [3] was greater than 10 µM each time. The results for the IC50 in assay [1] and in assay [3] were greater than 10 µM and 7.12 ± 1.26 µM, respectively. Also, the “Human GPR18 % activation” value in assay [1] (agonist mode) amounted to 16%. The “Human GPR18 % inhibition” value in assay [1] (antagonist mode) is recorded as 4%. Moreover, the Ki in assay [2] came to 0.000772 ± 0.000101 µM; in assay [4], 0.00118 ± 0.00019 µM.
For `CCCCCn1c2ccccc2c2cc(C(=O)c3cccc4ccccc34)ccc21` [compound 39, EG-018], the “Human GPR18 % activation” value in assay [1] (agonist mode) was 2%. The EC50 in assay [1] (agonist mode, read-out: Human GPR18 EC50) is greater than 10 µM; in assay [3] (agonist mode, read-out: Human GPR55 EC50), greater than 10 µM. Moreover, the IC50 is greater than 10 µM in assay [1] (antagonist mode, read-out: Human GPR18 IC50) and greater than 10 µM in assay [3] (antagonist mode versus lysophosphatidylinositol (LPI, 1 µM), read-out: Human GPR55 IC50). In addition, the “Human GPR55 % activation” value in assay [3] (agonist mode) amounted to 0%. Besides, in assay [3], the “Human GPR55 % inhibition” value stood at 1%. Further, the Ki in assay [4] turned out to be 0.00227 ± 0.00038 µM.
